Each molecule was assayed on HCV 1b-377-neo replicon cells (assay: HCV replicon assay, HCV 1b-377-neo replicon cells (1b FRET)). Settings: HCV 1b-377-neo replicon cells; HCV 1b genotype; read-out: EC50 range against HCV 1b (Table 2, Range).
Format: cell-based, Hepatitis C virus genotype 1b
Summary of the method: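 Compounds tested in HCV genotype 1b-377-neo replicon cells with a FRET read-out. Cells resistant to a reference NS5A inhibitor through a Y2065H NS5A mutation were run alongside wild-type cells.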

`COC(=O)N[C@@H](C(=O)N1CCC[C@H]1c1ncc(-c2ccc(-c3ccc(-c4cnc([C@@H]5CCCN5C(=O)[C@H](NC(=O)OC)c5ccccc5)[nH]4)cc3C)nc2)[nH]1)c1ccccc1` [Example 138] was tested, and the EC50 was 0.001 to 0.999 nM.

Same assay, conditions: Hepatitis C virus, HCV 1b-377-neo replicon cells; HCV 1b genotype; read-out: EC50 range against HCV 1b (Table 2, Range)

First: COC(=O)N[C@@H](C)C(=O)N1[C@H](c2ncc(-c3ccc(-c4ccc(-c5cnc([C@@H]6C[C@@H]7C[C@@H]7N6C(=O)[C@H](C)NC(=O)OC)[nH]5)cc4)cc3)[nH]2)C[C@@H]2C[C@@H]21 [Example M130, methyl ((1S)-2-((1S,3S,5S)-3-(5-(4′-(2-((1S,3S,5S)-2-(N-(methoxycarbonyl)-L-alanyl)-2-azabicyclo[3.1.0]hex-3-yl)-1H-imidazol-5-yl)-4-biphenylyl)-1H-imidazol-2-yl)-2-azabicyclo[3.1.0]hex-2-yl)-1-methyl-2-oxoethyl)carbamate]
Second: COC(=O)N[C@@H](CC(C)C)C(=O)N1CCC[C@H]1c1ncc(-c2ccc(-c3ccc(-c4cnc([C@@H]5CCCN5C(=O)[C@H](CC(C)C)NC(=O)OC)[nH]4)cc3)cc2)[nH]1 [OL-6, methyl ((1S)-1-(((2S)-2-(4-(4′-(2-((2S)-1-((2S)-2-((methoxycarbonyl)amino)-4-methylpentanoyl)-2-pyrrolidinyl)-1H-imidazol-4-yl)-4-biphenylyl)-1H-imidazol-2-yl)-1-pyrrolidinyl)carbonyl)-3-methylbutyl)carbamate]
The EC50 of the first is higher: 1 to 99 nM for the first, 0.001 to 0.999 nM for the second.

`CCN(CC)[C@@H](C(=O)N1CCC[C@H]1c1nc(-c2ccc(-c3ccc(-c4cnc([C@@H]5CCCN5C(=O)[C@@](C)(NC(=O)OC)C(C)C)[nH]4)cc3)cc2)c[nH]1)c1ccccc1` [Example F43, methyl ((1S)-1-(((2S)-2-(5-(4′-(2-((2S)-1-((2R)-2-(diethylamino)-2-phenylacetyl)-2-pyrrolidinyl)-1H-imidazol-4-yl)-4-biphenylyl)-1H-imidazol-2-yl)-1-pyrrolidinyl)carbonyl)-1,2-dimethylpropyl)carbamate] and `CCN(CC)[C@@H](C(=O)N1CCC[C@H]1c1ncc(-c2ccc(-c3ccc(-c4cnc([C@@H]5CCCN5C(=O)CC(Cc5ccccc5F)NC(=O)OC)[nH]4)cc3)cc2)[nH]1)c1ccccc1` (stereo in doubt) [cj-59, methyl ((1S)-3-((2S)-2-(5-(4′-(2-((2S)-1-((2R)-2-(diethylamino)-2-phenylacetyl)-2-pyrrolidinyl)-1H-imidazol-5-yl)-4-biphenylyl)-1H-imidazol-2-yl)-1-pyrrolidinyl)-1-(2-fluorobenzyl)-3-oxopropyl)carbamate] fall in the same range of EC50: 0.001 to 0.999 nM for the first, 0.001 to 0.999 nM for the second.

`COC(=O)N[C@H](C(=O)N1CCC[C@H]1c1ncc(-c2ccc(-c3ccc(-c4cnc([C@@H]5CCCN5C(=O)[C@H](NC5=NCCN5)C(C)C)[nH]4)cc3)cc2)[nH]1)C(C)C` [cj-11n, methyl ((1S)-1-(((2S)-2-(5-(4′-(2-((2S)-1-(N-(4,5-dihydro-1H-imidazol-2-yl)-D-valyl)-2-pyrrolidinyl)-1H-imidazol-5-yl)-4-biphenylyl)-1H-imidazol-2-yl)-1-pyrrolidinyl)carbonyl)-2-methylpropyl)carbamate] and `CC(C)[C@@H](O)C(=O)N1CCC[C@H]1c1ncc(-c2ccc(-c3ccc(-c4cnc([C@@H]5CCCN5C(=O)[C@H](O)C(C)C)[nH]4)cc3)cc2)[nH]1` [Example 16, (2R,2′R)-1,1′-(4,4′-biphenyldiylbis(1H-imidazole-5,2-diyl(2S)-2,1-pyrrolidinediyl))bis(3-methyl-1-oxo-2-butanol)] fall in the same range of EC50: 1 to 99 nM for the first, 1 to 99 nM for the second.

`COC(=O)N[C@@H](Cc1cccnc1)C(=O)N1CCC[C@H]1c1ncc(-c2ccc(-c3ccc(-c4cnc([C@@H]5CCCN5C(=O)[C@@H](NC(=O)OC)[C@@H](C)OC)[nH]4)cc3)cc2)[nH]1` [cj-82, methyl ((1S)-2-((2S)-2-(5-(4′-(2-((2S)-1-((2S,3R)-3-methoxy-2-((methoxycarbonyl)amino)butanoyl)-2-pyrrolidinyl)-1H-imidazol-5-yl)-4-biphenylyl)-1H-imidazol-2-yl)-1-pyrrolidinyl)-2-oxo-1-(3-pyridinylmethyl)ethyl)carbamate] and `COC(=O)N[C@@H](Cc1ccc(CN)cc1)C(=O)N1CCC[C@H]1c1ncc(-c2ccc(-c3ccc(-c4cnc([C@@H]5CCCN5C(=O)[C@@H](NC(=O)OC)C(C)C)[nH]4)cc3)cc2)[nH]1` [cj-103, methyl ((1S)-1-(4-(aminomethyl)benzyl)-2-((2S)-2-(5-(4′-(2-((2S)-1-((2S)-2-((methoxycarbonyl)amino)-3-methylbutanoyl)-2-pyrrolidinyl)-1H-imidazol-5-yl)-4-biphenylyl)-1H-imidazol-2-yl)-1-pyrrolidinyl)-2-oxoethyl)carbamate] fall in the same range of EC50: 0.001 to 0.999 nM for the first, 0.001 to 0.999 nM for the second.

`CCN(CC)[C@H]1CC[C@@H](C(=O)N2CCC[C@H]2c2ncc(-c3ccc(-c4ccc(-c5cnc([C@@H]6CCCN6C(=O)[C@H]6CCCC[C@H]6NC(=O)OC)[nH]5)cc4)cc3)[nH]2)CC1` [cj-97, methyl ((1R,2S)-2-(((2S)-2-(5-(4′-(2-((2S)-1-((cis-4-(diethylamino)cyclohexyl)carbonyl)-2-pyrrolidinyl)-1H-imidazol-5-yl)-4-biphenylyl)-1H-imidazol-2-yl)-1-pyrrolidinyl)carbonyl)cyclohexyl)carbamate] and `CCN(CC)[C@H]1CC[C@@H](C(=O)N2CCC[C@H]2c2ncc(-c3ccc(-c4ccc(-c5cnc([C@@H]6CCCN6C(=O)[C@@H](NC(=O)OC)[C@@H](C)OC)[nH]5)cc4)cc3)[nH]2)CC1` [cj-72, methyl ((1S,2R)-1-(((2S)-2-(5-(4′-(2-((2S)-1-((cis-4-(diethylamino)cyclohexyl)carbonyl)-2-pyrrolidinyl)-1H-imidazol-5-yl)-4-biphenylyl)-1H-imidazol-2-yl)-1-pyrrolidinyl)carbonyl)-2-methoxypropyl)carbamate] fall in the same range of EC50: 0.001 to 0.999 nM for the first, 0.001 to 0.999 nM for the second.

First: CN(C)CC[C@H](N)C(=O)N1CCC[C@H]1c1ncc(-c2ccc(-c3ccc(-c4cnc([C@@H]5CCCN5C(=O)[C@@H](N)CCN(C)C)[nH]4)cc3)cc2)[nH]1 [cj-142, (3S,3′S)-4,4′-(4,4′-biphenyldiylbis(1H-imidazole-5,2-diyl(2S)-2,1-pyrrolidinediyl))bis(N~1~,N~1~-dimethyl-4-oxo-1,3-butanediamine)]
Second: CN(C)[C@@H](C(=O)N1CCC[C@H]1c1ncc(-c2ccc(-c3ccc(-c4cnc([C@@H]5CCCN5C(=O)N5CCCC5)[nH]4)cc3)cc2)[nH]1)c1ccccc1 [Example 94, (1R)-N,N-dimethyl-2-oxo-1-phenyl-2-((2S)-2-(5-(4′-(2-((2S)-1-(1-pyrrolidinylcarbonyl)-2-pyrrolidinyl)-1H-imidazol-5-yl)-4-biphenylyl)-1H-imidazol-2-yl)-1-pyrrolidinyl)ethanamine]
The EC50 of the first is higher: 1000 to 10000 nM for the first, 0.001 to 0.999 nM for the second. The second is the more potent here.

First: CN(C)[C@@H](C(=O)N1CCC[C@H]1c1ncc(-c2ccc(-c3ccc(-c4cnc([C@@H]5CCCN5C(=O)Cc5noc6ccccc56)[nH]4)cc3)cc2)[nH]1)c1ccccc1 [Example 94-55, (1R)-2-((2S)-2-(5-(4′-(2-((2S)-1-(1,2-benzisoxazol-3-ylacetyl)-2-pyrrolidinyl)-1H-imidazol-5-yl)-4-biphenylyl)-1H-imidazol-2-yl)-1-pyrrolidinyl)-N,N-dimethyl-2-oxo-1-phenylethanamine]
Second: CN(CC(=O)N1CCC[C@H]1c1ncc(-c2ccc(-c3ccc(-c4cnc([C@@H]5CCCN5C(=O)CN(C)Cc5ccccc5)[nH]4)cc3)cc2)[nH]1)Cc1ccccc1 [Example 24-4e, 2,2′-(4,4′-biphenyldiylbis(1H-imidazole-5,2-diyl(2S)-2,1-pyrrolidinediyl))bis(N-benzyl-N-methyl-2-oxoethanamine)]
The EC50 of the first is lower: 0.001 to 0.999 nM for the first, 1 to 99 nM for the second. The first is the more potent here.

`COC(=O)N[C@@H](C(=O)N1CCC[C@H]1c1ncc(-c2ccc(-c3ccc(-c4cnc([C@@H]5CCCN5C(C)=O)[nH]4)cc3)cc2)[nH]1)c1ccccc1` [Example 31, methyl ((1R)-2-((2S)-2-(5-(4′-(2-((2S)-1-acetyl-2-pyrrolidinyl)-1H-imidazol-5-yl)-4-biphenylyl)-1H-imidazol-2-yl)-1-pyrrolidinyl)-2-oxo-1-phenylethyl)carbamate] and `CO[C@@H](C(=O)N1CCC[C@H]1c1ncc(-c2ccc(-c3ccc(-c4cnc([C@@H]5CCCN5C(=O)[C@H](OC)c5ccccc5)[nH]4)cn3)cc2)[nH]1)c1ccccc1` [Example 135, 5-(2-((2S)-1-((2R)-2-methoxy-2-phenylacetyl)-2-pyrrolidinyl)-1H-imidazol-5-yl)-2-(4-(2-((2S)-1-((2R)-2-methoxy-2-phenylacetyl)-2-pyrrolidinyl)-1H-imidazol-5-yl)phenyl)pyridine] fall in the same range of EC50: 0.001 to 0.999 nM for the first, 0.001 to 0.999 nM for the second.

`CC(=O)N1[C@@H](C)CC[C@H]1c1ncc(-c2ccc(-c3ccc(-c4cnc([C@@H]5CC[C@H](C)N5C(C)=O)[nH]4)cc3)cc2)[nH]1` (stereo in doubt) [Example M162, 2-((2S,5S)-1-acetyl-5-methyl-2-pyrrolidinyl)-4-(4′-(2-((2S,5S)-1-acetyl-5-methyl-2-pyrrolidinyl)-1H-imidazol-5-yl)-4-biphenylyl)-1H-imidazole] and `CNC(=O)c1nc([C@@H]2CCCN2C(=O)[C@H](C)NC(=O)OC)[nH]c1-c1ccc(-c2ccc(-c3cnc([C@@H]4CCCN4C(=O)[C@@H](C)NC(=O)OC)[nH]3)cc2)cc1` [Example J28, methyl ((1S)-2-((2S)-2-(5-(4′-(2-((2S)-1-(N-(methoxycarbonyl)-L-alanyl)-2-pyrrolidinyl)-4-(methylcarbamoyl)-1H-imidazol-5-yl)-4-biphenylyl)-1H-imidazol-2-yl)-l-pyrrolidinyl)-l-methyl-2-oxoethyl)carbamate] fall in the same range of EC50: 1 to 99 nM for the first, 1 to 99 nM for the second.

Work on `O=C([C@@H](c1ccccc1)N1CCCCC1)N1CCC[C@H]1c1ncc(-c2ccc(-c3ccc(-c4cnc([C@@H]5CCCN5C(=O)[C@@H](c5ccccc5)N5CCCCC5)[nH]4)cc3)cc2)[nH]1` [Example 24-1, 1,1′-(4,4′-biphenyldiylbis(1H-imidazole-5,2-diyl(2S)-2,1-pyrrolidinediyl((1R)-2-oxo-1-phenyl-2,1-ethanediyl)))dipiperidine] yielded an EC50 of 0.001 to 0.999 nM.
